ChEMBL document CHEMBL1147065, “Identification of an in vivo inhibitor of Bacillus anthracis spore germination” (J Biol Chem, 2007)
pKi: −log10 of the molar value. Activity calls are given as the source filed them. The calls are words filed in the database; no cut-off is given here.

tested on: Bacillus anthracis; assay: Inhibition of cytopathic effect in Bacillus anthracis Sterne infected mouse RAW264.7 macrophage after 6 hrs by propidium iodide exclusion assay; assay type: functional, organism-based

| Compound | Activity |
| --- | --- |
| Nc1nc(N)c2ncn([C@@H]3O[C@H](CO)[C@@H](O)[C@H]3O)c2n1 | inactive |
| COc1nc(N)nc2c1ncn2[C@@H]1O[C@H](CO)[C@@H](O)[C@H]1O | inactive |
| OC[C@H]1O[C@@H](n2cnc3c(O)nc(O)nc32)[C@H](O)[C@@H]1O [XANTHOSINE] | inactive |
| CSc1ncnc2c1ncn2[C@@H]1O[C@H](CO)[C@@H](O)[C@H]1O | inactive |
| Nc1nc(Cl)c2ncn([C@@H]3O[C@H](CO)[C@@H](O)[C@H]3O)c2n1 | inactive |

target: Bacillus anthracis; assay: Inhibition of inosine and alanine-induced germination of Bacillus anthracis Sterne spore pre-incubated for 15 mins; assay type: functional, organism-based

| Compound | pKi |
| --- | --- |
| Nc1nc(N)c2ncn([C@@H]3O[C@H](CO)[C@@H](O)[C@H]3O)c2n1 | 4.17 |
| COc1nc(N)nc2c1ncn2[C@@H]1O[C@H](CO)[C@@H](O)[C@H]1O | 4.47 |
| OC[C@H]1O[C@@H](n2cnc3c(O)nc(O)nc32)[C@H](O)[C@@H]1O [XANTHOSINE] | 3.11 |
| CSc1ncnc2c1ncn2[C@@H]1O[C@H](CO)[C@@H](O)[C@H]1O | 4.51 |
| Nc1nc(Cl)c2ncn([C@@H]3O[C@H](CO)[C@@H](O)[C@H]3O)c2n1 | 4.06 |
| Nc1nc(=S)c2ncn([C@@H]3O[C@H](CO)[C@@H](O)[C@H]3O)c2[nH]1 [THIOGUANOSINE] | 4.01 |

tested on: Bacillus anthracis; assay: Inhibition of cytopathic effect in Bacillus anthracis Sterne infected mouse RAW264.7 macrophage assessed as lack of propidium iodide positive cells after 7 hrs; assay type: functional, organism-based

| Compound | Activity |
| --- | --- |
| Nc1nc(=S)c2ncn([C@@H]3O[C@H](CO)[C@@H](O)[C@H]3O)c2[nH]1 [THIOGUANOSINE] | Active |

tested on: Bacillus anthracis; assay: Inhibition of cytopathic effect in Bacillus anthracis Sterne infected mouse RAW264.7 macrophage at 1 uM to 2 uM after 6 hrs by propidium iodide exclusion assay; assay type: functional; design: scale not given: the % may be the effect or the level left

| Compound | Activity [%] |
| --- | --- |
| Nc1nc(=S)c2ncn([C@@H]3O[C@H](CO)[C@@H](O)[C@H]3O)c2[nH]1 [THIOGUANOSINE] | 88 |
